Experimental data: BindingDB's records for doi:10.1021/jm0510934 (Abbott Laboratories, 2006)

Molecular target: Growth hormone secretagogue receptor type 1 (Homo sapiens, UniProt Q92847)
Test: Receptor Binding Studies and GHS-R Ca2+ Flux Assay
Experimental: Specific binding was determined by incubation of membranes from GHS-R1a transfected CHO-K cells with 125I-His9-ghrelin in the presence of increasing concentrations of compounds to obtain IC50. Fluorescence emissions from 96 wells were measured simultaneously at excitation and emission wavelength of 488 and 520 nm, respectively. During this time, agonist responses in the absence of ghrelin, or the antagonist effects of compounds on ghrelin-stimulated calcium flux were recorded. Sigmoidal curves were fitted and EC50/IC50 values were determined by GraphPad Prism software.

Sequence of Growth hormone secretagogue receptor type 1 (Q92847 whole entry): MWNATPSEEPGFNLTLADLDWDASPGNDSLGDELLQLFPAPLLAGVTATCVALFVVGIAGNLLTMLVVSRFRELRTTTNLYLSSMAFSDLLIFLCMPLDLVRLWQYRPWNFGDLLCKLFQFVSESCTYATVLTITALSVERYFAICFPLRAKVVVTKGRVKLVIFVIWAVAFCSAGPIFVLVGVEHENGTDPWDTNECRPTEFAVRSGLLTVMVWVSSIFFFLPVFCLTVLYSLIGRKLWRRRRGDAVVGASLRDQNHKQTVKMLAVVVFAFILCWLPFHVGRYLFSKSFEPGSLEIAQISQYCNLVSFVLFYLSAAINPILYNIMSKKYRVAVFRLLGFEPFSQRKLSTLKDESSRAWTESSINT

| SMILES | IC50 [nM] | IC50 (pH 7.4, 22 °C) [nM] | IC50 (pH 7.4, 22 °C, read-out: IC50) [nM] |
| --- | --- | --- | --- |
| CCc1nc(N)nc(N)c1-c1ccc(NCc2ccc(S(C)(=O)=O)cc2)c(Br)c1 [5-(3-bromo-4-{[(4-methanesulfonylphenyl)methyl]amino}phenyl)-6-ethylpyrimidine-2,4-diamine] | 42 | – | – |
| CCc1nc(N)nc(N)c1-c1ccc(NCc2cc(F)c(S(C)(=O)=O)c(F)c2)cc1 [5-(4-{[(3,5-difluoro-4-methanesulfonylphenyl)methyl]amino}phenyl)-6-ethylpyrimidine-2,4-diamine] | – | 45 | – |
| N#Cc1ccc(CNc2ccc(-c3c(N)nc(N)nc3COCc3ccccc3)cc2)cc1 [4-{[(4-{2,4-diamino-6-[(benzyloxy)methyl]pyrimidin-5-yl}phenyl)amino]methyl}benzonitrile] | – | 19 | – |
| COc1ccc(CNc2ccc(-c3c(N)nc(N)nc3COCc3ccccc3)cc2)cc1 [6-[(benzyloxy)methyl]-5-(4-{[(4-methoxyphenyl)methyl]amino}phenyl)pyrimidine-2,4-diamine] | 90 | – | – |
| Nc1nc(N)c(-c2ccc(NCc3ccc(S(=O)(=O)C(F)(F)F)cc3)cc2)c(COCc2ccccc2)n1 [6-[(benzyloxy)methyl]-5-[4-({[4-(trifluoromethane)sulfonylphenyl]methyl}amino)phenyl]pyrimidine-2,4-diamine] | – | 85 | 1 |
| Nc1nc(N)c(-c2ccc(NCc3ccc([N+](=O)[O-])cc3)cc2)c(COCc2ccccc2)n1 [6-[(benzyloxy)methyl]-5-(4-{[(4-nitrophenyl)methyl]amino}phenyl)pyrimidine-2,4-diamine] | – | 5.8 | – |
| N#Cc1ccc(COc2ccc(-c3c(N)nc(N)nc3COCc3ccccc3)cc2)cc1 [2,4-diaminopyrimidine derivative, 10b] | 3610 | – | – |
| Nc1nc(N)c(-c2ccc(NCc3ccc(C(F)(F)F)cc3)cc2)c(COCc2ccccc2)n1 [6-[(benzyloxy)methyl]-5-[4-({[4-(trifluoromethyl)phenyl]methyl}amino)phenyl]pyrimidine-2,4-diamine] | – | 97 | – |
| Nc1nc(N)c(-c2ccc(CNc3ccc([N+](=O)[O-])cc3)cc2)c(COCc2ccccc2)n1 [6-[(benzyloxy)methyl]-5-(4-{[(4-nitrophenyl)amino]methyl}phenyl)pyrimidine-2,4-diamine] | 16 | – | – |
| CCc1nc(N)nc(N)c1-c1ccc(CNc2ccc([N+](=O)[O-])cc2)cc1 [6-ethyl-5-(4-{[(4-nitrophenyl)amino]methyl}phenyl)pyrimidine-2,4-diamine] | 190 | – | – |
| CCc1nc(N)nc(N)c1-c1ccc(NCc2ccc([N+](=O)[O-])cc2)cc1 [6-ethyl-5-(4-{[(4-nitrophenyl)methyl]amino}phenyl)pyrimidine-2,4-diamine] | – | 23 | – |
| CCc1nc(N)nc(N)c1-c1ccc(NCc2ccc(Cl)cc2)cc1 [5-(4-{[(4-chlorophenyl)methyl]amino}phenyl)-6-ethylpyrimidine-2,4-diamine] | – | 1380 | – |
| CCc1nc(N)nc(N)c1-c1ccc(NCc2ccc(S(C)(=O)=O)cc2)cc1 [6-ethyl-5-(4-{[(4-methanesulfonylphenyl)methyl]amino}phenyl)pyrimidine-2,4-diamine] | – | 12 | – |
| CCc1nc(N)nc(N)c1-c1ccc(NCc2ccc(C(C)O)cc2)cc1 (stereo unspecified) [1-[4-({[4-(2,4-diamino-6-ethylpyrimidin-5-yl)phenyl]amino}methyl)phenyl]ethan-1-ol] | – | 110 | – |
| Nc1nc(N)c(-c2ccc(NCc3ccc(Cl)s3)cc2)c(COCc2ccccc2)n1 [6-[(benzyloxy)methyl]-5-(4-{[(5-chlorothiophen-2-yl)methyl]amino}phenyl)pyrimidine-2,4-diamine] | 320 | – | – |
| CS(=O)(=O)c1ccc(CNc2ccc(-c3c(N)nc(N)nc3COCc3ccccc3)cc2)cc1 | – | 7.2 | – |
| CC(=O)c1ccc(CNc2ccc(-c3c(N)nc(N)nc3COCc3ccccc3)cc2)cc1 [1-(4-{[(4-{2,4-diamino-6-[(benzyloxy)methyl]pyrimidin-5-yl}phenyl)amino]methyl}phenyl)ethan-1-one] | – | 10 | – |

| SMILES | IC50 [nM] | IC50 (pH 7.4, 22 °C) [nM] | IC50 (pH 7.4, 22 °C, read-out: IC50) [nM] |
| --- | --- | --- | --- |
| CCc1nc(N)nc(N)c1-c1ccc(N(C)Cc2ccc(S(C)(=O)=O)cc2)cc1 [6-ethyl-5-(4-{[(4-methanesulfonylphenyl)methyl](methyl)amino}phenyl)pyrimidine-2,4-diamine] | 32 | – | – |
| Nc1nc(N)c(-c2ccc(NCc3ccc(Cl)cc3)cc2)c(CCc2ccccc2)n1 [5-(4-{[(4-chlorophenyl)methyl]amino}phenyl)-6-(2-phenylethyl)pyrimidine-2,4-diamine] | 3350 | – | – |
| CCc1nc(N)nc(N)c1-c1ccc(NCc2ccc(C(C)=O)cc2)cc1 [1-[4-({[4-(2,4-diamino-6-ethylpyrimidin-5-yl)phenyl]amino}methyl)phenyl]ethan-1-one] | – | 110 | – |
| CCc1nc(N)nc(N)c1-c1ccc(NCc2ccc(C#N)cc2)cc1 [4-({[4-(2,4-diamino-6-ethylpyrimidin-5-yl)phenyl]amino}methyl)benzonitrile] | – | 780 | – |
| CCc1nc(N)nc(N)c1-c1ccc(CNc2ccc(S(C)(=O)=O)cc2)cc1 [6-ethyl-5-(4-{[(4-methanesulfonylphenyl)amino]methyl}phenyl)pyrimidine-2,4-diamine] | 120 | – | – |
| CCc1nc(N)nc(N)c1-c1ccc(NCc2ccnc(Cl)c2)cc1 [5-(4-{[(2-chloropyridin-4-yl)methyl]amino}phenyl)-6-ethylpyrimidine-2,4-diamine] | – | 220 | – |
| Nc1nc(N)c(-c2ccc(NCc3ccnc(Cl)c3)cc2)c(COCc2ccccc2)n1 [6-[(benzyloxy)methyl]-5-(4-{[(2-chloropyridin-4-yl)methyl]amino}phenyl)pyrimidine-2,4-diamine] | – | 3.6 | – |
| CCc1nc(N)nc(N)c1-c1ccc(NCc2csc(Cl)c2)cc1 [5-(4-{[(5-chlorothiophen-3-yl)methyl]amino}phenyl)-6-ethylpyrimidine-2,4-diamine] | – | 790 | – |
| CS(=O)(=O)c1ccc(COc2ccc(-c3c(N)nc(N)nc3COCc3ccccc3)cc2)cc1 [6-[(benzyloxy)methyl]-5-{4-[(4-methanesulfonylphenyl)methoxy]phenyl}pyrimidine-2,4-diamine] | 48 | – | – |
| Nc1nc(N)c(-c2ccc(NCc3csc(Cl)c3)cc2)c(COCc2ccccc2)n1 [6-[(benzyloxy)methyl]-5-(4-{[(5-chlorothiophen-3-yl)methyl]amino}phenyl)pyrimidine-2,4-diamine] | 170 | – | – |
| CCc1nc(N)nc(N)c1-c1ccc(NCc2ccc(S(C)(=O)=O)cc2)c(Cl)c1 [5-(3-chloro-4-{[(4-methanesulfonylphenyl)methyl]amino}phenyl)-6-ethylpyrimidine-2,4-diamine] | 11 | – | – |
| CC(C)(C)CNc1ccc(-c2c(N)nc(N)nc2COCc2ccccc2)cc1 [6-[(benzyloxy)methyl]-5-{4-[(2,2-dimethylpropyl)amino]phenyl}pyrimidine-2,4-diamine] | 700 | – | – |
| Nc1nc(N)c(-c2ccc(NCc3ccncc3)cc2)c(COCc2ccccc2)n1 [6-[(benzyloxy)methyl]-5-{4-[(pyridin-4-ylmethyl)amino]phenyl}pyrimidine-2,4-diamine] | 86 | – | – |
| Nc1nc(N)c(-c2ccc(NCc3cnc4ccccc4c3)cc2)c(COCc2ccccc2)n1 [6-[(benzyloxy)methyl]-5-{4-[(quinolin-3-ylmethyl)amino]phenyl}pyrimidine-2,4-diamine] | 780 | – | – |
| CCc1nc(N)nc(N)c1-c1ccc(NCc2ccc(S(=O)(=O)C(F)(F)F)cc2)cc1 [6-ethyl-5-[4-({[4-(trifluoromethane)sulfonylphenyl]methyl}amino)phenyl]pyrimidine-2,4-diamine] | – | 690 | 21 |
| Nc1nc(N)c(-c2ccc(NCc3ccccc3)cc2)c(COCc2ccccc2)n1 [5-[4-(benzylamino)phenyl]-6-[(benzyloxy)methyl]pyrimidine-2,4-diamine] | 980 | – | – |
| Nc1nc(N)c(-c2ccc(NCc3ccc(Cl)cc3)cc2)c(COCc2ccccc2)n1 [6-[(benzyloxy)methyl]-5-(4-{[(4-chlorophenyl)methyl]amino}phenyl)pyrimidine-2,4-diamine] | – | 180 | – |
